From patent publication US9622469B2, “Crosslink breakers for preservation of biological substances” (priority 2013, dated 2017)
Entries after “also recorded” stand apart in the source; their conditions may differ. Marks after values point to notes of the source that are not given here.

Key:
[1] = NHC-mediated reaction with α-keto aldehyde phenylglyoxal (16), Method B; format: biochemical; settings: isolated yield with respect to 2
Procedure: (§1) 60 mM solution of dicarbonyl substrate (45 μmol) in MeCN (0.75 ml) was added to 20 mM solution of NHC (15 μmol) in 0.15 M pH 7.4 sodium phosphate buffer (0.75 ml) and kept stirred at 37° C. At stated times, 75 μl aliquots were taken, diluted with 50% MeCN/H2O (425 μl) and analyzed by LCMS with 2,4-dihydroxyquinoline (248 μM) as an internal standard. The cleavage products were quantified by peak integration against the calibration curves.
Phenylglyoxal hydrate (16; 114 mg, 0.75 mmol, 2 eq) was added to a solution of ALT-711 (2; 100 mg, 0.37 mmol) in 50% MeCN/0.15 M pH 7.4 phosphate buffer (total vol. 37 ml) and kept stirred at room temperature for 15 mins. The reaction mixture was cooled to −20° C. to precipitate out sodium phosphate as white crystals. The supernatant was transferred, and the residue was washed with MeCN and combined with the supernatant. This yellow clear solution was concentrated at room temperature to remove MeCN and purified by HPLC (16-27MeCN over 31 min). […]
(§2) Reactions involving α-keto aldehyde derivatives 16 and 17 followed an unexpected course. Treatment of these substrates with 2 led to instantaneous, high-yield production of a diastercomeric mixture of cycloadducts (19 and 20) that decompose to complex mixtures under the reaction conditions with half-lives of approximately 3 h Structures were determined based on in-depth NMR analysis (see Supplementary Material).

[2] = NHC-mediated reaction with α-keto aldehyde methylglyoxal (17), Method B; format: biochemical; settings: isolated yield with respect to 2
Procedure: as §1
Four diastereomers (ALT-MGO-1 through ALT-MGO-4) were obtained with a similar method to ALT-PG using 2 (100 mg, 0.37 mmol) and 40% methylglyoxal (MOO, 17) solution (0.2 ml, 1.3 mmol, 3.5 eq). Purification was performed by HPLC (9-19% MeCN over 32 min), and the lyophilization of fractions afforded the title compounds as white solids (96% combined yield). See Supplementary Material for characterization data.
as §2

[3] = NHC-mediated cleavage of bis-alkyl diketone 14, Method B; format: biochemical; settings: LCMS, with respect to dicarbonyl
Procedure: as §1
Our efforts to investigate the scope of thiazolium salt-mediated reactions with dicarbonyls began with bis-alkyl diketone 14 (Table 3, Entry 1). This substrate is cleaved cleanly by 2, and affords acid 18 in 82% yield. NHC precursor 4, on the other hand, provides 18 in only 14% yield (Entry 2). The efficiency of dicarbonyl cleavage reactions decreases substantially in the case of benzil (15, Entry 3), which affords benzoic acid in 14% and 1% yield following exposure to 2 and 4, respectively.

[4] = test system: AGE precursor (α-dicarbonyl) on RBCs; assay: AGE precursor (α-dicarbonyl) levels on stored RBCs (dicarbonyl-specific fluorophore); format: cell-based, mouse; settings: typical storage conditions, up to 14 days
Procedure: (§3) Leuko-reduced mouse blood was stored under typical storage conditions for up to 14 days, in either OCR6043, control compound, or without any treatment. FIG. 2A illustrates an analysis of glucose in the serum from the stored blood was evaluated using a glucose oxidase enzymatic assay. […] FIG. 2B illustrates the AGE precursor levels on RBCs were measured using a dicarbonyl-specific fluorophore that was developed in-house. The time dependent increase in the AGE precursor levels was dampened in the presence of OCR6043. FIG. 2C illustrates mouse blood that was stored for 14 days, was evaluated for its immunogenicity upon transfusion, by testing for IgGs against an alloantigen on the RBCs (HOD=HEL-OVA-Duffy).

stored mouse blood = assay: Glucose in serum of stored mouse blood (glucose oxidase enzymatic assay); format: cell-based; settings: typical storage conditions, up to 14 days
Procedure: as §3

[5] = rats; cited from earlier work
[6] = Cleavage of PPD (3) to benzoic acid by NHC precursors, Method B (MeCN co-solvent); format: biochemical
Procedure: (§4) Dicarbonyl cleavage reactions were performed using either the method described in Vasan et al., An agent cleaving glucose-derived protein crosslinks in vitro and in vivo, Nature (1996) Vol. 382, pp. 275-278 (Method A) or a modified method with MeCN as a co-solvent (Method B).
as §1
Thus, our first goal in these studies was to assess the ability of various NHC precursors to induce the degradation of the dicarbonyl model substrate (PPD, 3). To this end, we screened the thiazolium (4-6), benzothiazolium (7), triazolium (8,9) and imidazolium (10) halide substructures shown in Table 1.

[7] = Cleavage of PPD by NHC precursors, Method A (alcoholic co-solvent); format: biochemical; settings: co-solvent MeOH
Procedure: as §4
PPD (21 μl, 156 μmol) was added to a murky solution of NHC (2 or 4, 71 μmol) in 50% MeOH/0.5 M pH 7.4 sodium phosphate buffer (3.5 ml/3.5 ml; final conc. 10 mM NHC, 22 mM PPD) and kept stirred at 37° C. Approximately 0.5 ml aliquots were taken at stated times and analyzed by HPLC. Experiments using EtOH or iPrOH as a co-solvent were done in the same manner. Concentrations of benzoic acid and benzoate esters were determined by peak integration against the calibration curves.
Having learned that ALT-711 performed best among NHCs evaluated for PPD cleavage, we sought to test its substrate scope versus its N-benzyl counterpart (4). We therefore measured product distribution and yield while varying the co-solvent used to solubilize dicarbonyl substrates. As summarized in Table 2, we first investigated the performance of alcoholic co-solvents in PPD cleavage reactions. […] Despite this, however, the product distributions differed substantially: ALT-711 (2) predominantly afforded benzoic acid (PhCO2H:PhCO2Me=3.2:1, Entry 2), whereas 4 mostly gave rise to methyl benzoate (PhCO2H:PhCO2Me=1:2.2, Entry 4). Further replacement of the co-solvent with EtOH and i-PrOH in 4-catalyzed reactions led to a decrease in the proportion of ester production, still without altering overall yield (Entries 5 and 6).

[8] = various animal studies and clinical trials; cited from earlier work
circulating stored RBCs = assay: Post-transfusion recovery of stored RBCs (flow cytometry); format: in vivo, mouse; settings: blood stored 14 days; 24 hours after transfusion; listed as OCR6043
Procedure: as §3
Using the transfusion methodology described in Hendrickson et al., it was possible to identify the surviving circulating RBCs using flow cytometry.

With Cc1sc[n+](CC(=O)c2ccccc2)c1C.[Cl-] [Compound 2] the “% Yield of cycloadduct 19 from substrate 16” value [1] was 55^b %, the “% Yield of cycloadduct 20 from substrate 17” value [2] was 96^b % and the “% Yield of acid 18 from substrate 14” value [3] was 82%. The “Time dependent increase in AGE precursor levels on RBCs” value [4] was “dampened”, the “Glucose levels in serum of stored blood” value (stored mouse blood) was “more effective preservation of glucose levels” and the “MGO levels and MGO-induced glucose intolerance” value [5] was “lowered MOO levels and attenuated MOO-induced glucose intolerance”. The “Benzoic acid formation from 3 (in words)” value ([6]; Method B screen of NHC precursors) was “highest overall yield”, the “Combined % Yield (PhCO2H)” value ([6]; co-solvent MeCN, Method B, LCMS, with respect to dicarbonyl) was 61% and the “Combined % Yield (PhCO2H, PhCO2Me)” value [7] was 54%. The “Toxicity to animals and humans” value [8] was “non-toxic” and the “Cell survival of transfused stored RBCs versus untreated stored blood” value (circulating stored RBCs) was “two-fold increase; also recorded: twofold increase”.
